Measurements as given in patent US20190257816A1, “DIFFERENTIAL BH3 MITOCHONDRIAL PROFILING” (Eutropics Pharmaceuticals, Inc., priority 2013, published 2019).
Values joined by “and” are separate entries in the source; they are usually repeats but may differ in a detail not shown here. Identical values can stand only once. Where no end group is shown, it is not given here.

Experiments:
Bcl-2 1863 = experiment: MTS viability assay, Bcl-2 1863; type: cell-based; conditions: Bcl-2 primed cells (Bcl-2 1863)
LPN3 [1] = experiment: MTS viability assay, LPN3; type: cell-based; conditions: LPN3, 48 hours
Method: (§1) The mitochondrial profiling assay was carried out in three steps: (1) cell preparation and counting, (2) cell permeabilization and peptide treatment, and (3) fluorescent readout (FIG. 1). Cells are suspended in Mitochondria loading Buffer with 0.005% digitonin, loaded with the cationic dye JC-1 (1 μM), and treated with 100 μM of one of the BH3 domain peptides: Bim, Bad, Noxa, and Puma. MOMP is followed by full mitochondrial membrane depolarization (ΔΨm), which is measured by treating the cells with the ionophore FCCP (p-trifluoromethoxy carbonyl cyanide phenyl hydrazone). Peptide (and FCCP) addition results in a decrease in membrane potential in suitably primed cells and is measured as a decrease in JC-1 fluorescence in a 384 well plate on a TecanGenios plate reader using an excitation of 535 nm and an emission of 590 nm.
(§2) Tables 3 and 4 show the percent priming of various cell lines, as determined by measuring the signal intensity of the JC-1 dye which is an indicator of mitochondrial depolarization. […] Viability was measured using an MTS assay. The IC50 is in μM.

DHL6 [2] = experiment: MTS viability assay, DHL6; type: cell-based; conditions: DHL6, 48 hours
Method: as §1, §2

Mcl-1 1780 [3] = experiment: MTS viability assay, Mcl-1 1780; type: cell-based; conditions: for IC50: Mcl1-1780, Mcl-1 1780, 48 hours
Method: as §1, §2

NCI-H929 [4] = experiment: MTS viability assay, NCI-H929; type: cell-based; conditions: Homo sapiens; NCI-H929, 48 hours
Method: as §1, §2

DHL10 = experiment: MTS viability assay, DHL10; type: cell-based; conditions: for IC50: DHL10 (Bax/Bak deficient), 48 hours
Method: as §1, §2

OPM2/Luciferase cells = experiment: Tumor burden by bioluminescence imaging in xenografted mice; type: in vivo; conditions: OPM2/Luciferase xenograft in SCID mice, velcade 1 mpk IV 3×/week, compared with vehicle-only
Method: Mice were injected with 75 mg/kg D-luciferin, anesthetized, and imaged 10 minutes after substrate injection. Total body luminescence was determined using a standardized region of interest encompassing the entire mouse using the Living Images software package (Caliper Life Sciences).
OPM2/Luciferase cells were transferred to SCID mice and allowed to reach tumor burden. Xenografted mice were treated with EU-5148 (20 mpk IV, 3×/week), velcade for (1 mpk IV, 3×/week), or a combination of these treatments. […] The combination treatment of EU-5148 with Velcade results in 92% reduction in tumor cell burden over same time period.

multiple myeloma = experiment: Patient M-protein (M-spike) response to Velcade/Bortezomib treatment; type: in vivo, human; parameters: key to Δ M-Spike: % decrease in M-protein over treatment period; conditions: for Δ M-Spike: Velcade/Bortezomib combination regimen
Description: To date, we have obtained Mitochondrial profiles from 14 multiple myeloma or plasma cell leukemia patients. Each of the samples tested came from patients treated with one of several different Velcade/Bortezomib combination regimens. The samples listed in Table 5 are viably frozen from a tissue bank or from fresh bone marrow delivered within a few hours of the biopsy. CD138 cells are purified from either source using two similar procedures that have been optimized for each respective tissue type. Profiles on frozen cells are performed immediately following purification. Profiles on fresh cells are performed immediately or on viably frozen CD138 positive cells. […] M-protein is an indication of myeloma activity and is widely used diagnostic marker of the severity of the disease. The patient M-protein response is converted to a percentage of the best response seen among the group of patients tested. The M-spike response is calculated as a percent decrease in M-protein over a given treatment period. […] The percent decrease is calculated with the following equation. The percent best response is used to normalize the data to a fixed scale where 100% is the best response and 0% is the worst response. It is calculated with the equation below. Cancer cells collected from a patient undergoing Velcade based treatment were mitochondrial profiled at three time points during the course of treatment (October 2010, January 2011, and May 2011). The profile was used to monitor the apoptotic predisposition of the CD-138 positive MM cells during treatment.

BCL-2 = BCL-2 (Homo sapiens, UniProt P10415); experiment: BH3 domain binding affinities to BCL-2
BCL-XL = BCL-XL (Homo sapiens, UniProt Q07817); experiment: BH3 domain binding affinities to BCL-XL
DHL6 [5] = experiment: Mitochondrial profiling assay (JC-1), DHL6; type: cell-based; conditions: DHL6, percent priming, JC-1, 100 μM peptide
Method: as §1, §2

LPN3 [6] = experiment: Mitochondrial profiling assay (JC-1), LPN3; type: cell-based; conditions: LPN3, percent priming, JC-1, 100 μM peptide
Method: as §1, §2

Mcl-1 1780 [7] = experiment: Mitochondrial profiling assay (JC-1), Mcl-1 1780; type: cell-based; conditions: Mcl-1 1780, percent priming, JC-1, 100 μM peptide
Method: as §1, §2

NCI-H929 [8] = experiment: Mitochondrial profiling assay (JC-1), NCI-H929; type: cell-based; conditions: NCI-H929, percent priming, JC-1, 100 μM peptide
Method: as §1, §2

Sequence of BCL-2 (P10415 whole entry, the tested form may be a part): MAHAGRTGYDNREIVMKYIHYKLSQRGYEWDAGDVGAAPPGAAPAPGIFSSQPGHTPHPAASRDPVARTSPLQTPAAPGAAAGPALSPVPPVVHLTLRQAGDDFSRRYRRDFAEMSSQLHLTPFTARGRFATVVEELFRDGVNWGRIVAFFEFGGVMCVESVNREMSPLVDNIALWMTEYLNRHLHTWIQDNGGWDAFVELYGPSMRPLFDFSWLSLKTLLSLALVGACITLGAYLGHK
Sequence of BCL-XL (Q07817 whole entry, the tested form may be a part): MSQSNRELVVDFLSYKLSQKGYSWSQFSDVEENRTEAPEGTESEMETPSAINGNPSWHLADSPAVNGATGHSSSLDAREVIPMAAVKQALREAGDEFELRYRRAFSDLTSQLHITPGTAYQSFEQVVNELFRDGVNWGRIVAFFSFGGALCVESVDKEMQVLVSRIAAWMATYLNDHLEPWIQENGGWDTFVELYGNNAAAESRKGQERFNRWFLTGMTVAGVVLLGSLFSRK

CC1(C)CCC(c2ccc(Cl)cc2)=C(CN2CCN(c3ccc(C(=O)NS(=O)(=O)c4ccc(N[C@H](CCN5CCOCC5)CSc5ccccc5)c(S(=O)(=O)C(F)(F)F)c4)cc3)CC2)C1 [ABT-263, Navitoclax]
cell-killing activity (in words) (Bcl-2 1863): effective
IC50 (LPN3 [1]): 4.1 µM
IC50 (DHL6 [2]): < 1000 nM
IC50 (Mcl-1 1780 [3]): 17 µM
cell-killing activity (in words) (Mcl-1 1780 [3]; Mcl-1 primed cells (Mcl-1 1780)): ineffective
IC50 (NCI-H929 [4]): 4000 nM
IC50 (DHL10): > 25000 nM
cell-killing activity (in words) (DHL10; DHL-10 cells deficient in the Bax-Bak proteins): not responsive

CC(C)C[C@H](NC(=O)[C@H](Cc1ccccc1)NC(=O)c1cnccn1)B(O)O [Velcade, Bortezomib]
mean tumor burden reduction (in words) (OPM2/Luciferase cells): mean tumor burden reduction was observed
Δ M-Spike (multiple myeloma; Patient No. 3039T): 64.71
Δ M-Spike (multiple myeloma; Patient No. 3098T): 62.50
Δ M-Spike (multiple myeloma; Patient No. 3161T): 12.90
Δ M-Spike (multiple myeloma; Patient No. 3187T): 65.22
Δ M-Spike (multiple myeloma; Patient No. 3188T): 93.03
Δ M-Spike (multiple myeloma; Patient No. 3191T): 57.69
Δ M-Spike (multiple myeloma; Patient No. 3201T): 87.50
Δ M-Spike (multiple myeloma; Patient No. 3213T): −10.00
Δ M-Spike (multiple myeloma; Patient No. 3221T): 52.38
M-Spike (multiple myeloma; TB# 3098T2, Jan. 27, 2011, patient undergoing Velcade based treatment): 0.8 g/dL
M-Spike (multiple myeloma; TB# 3098T3, May 5, 2011, patient undergoing Velcade based treatment): 0.3 g/dL
M-Spike (multiple myeloma; TB# 3098T, Oct. 13, 2010, patient undergoing Velcade based treatment): 1.7 g/dL

NLWAAQRYGRELRRMSDEFVDSFK [BAD BH3]
Kd (BCL-2): 11 nM
Kd (BCL-XL): < 10 nM

COC1=CC(c2cc3ccccc3[nH]2)=N/C1=C\c1[nH]c(C)cc1C [Obatoclax]
IC50 (DHL6 [2]): 1200 nM
IC50 (Mcl-1 1780 [3]): 1.5 µM
IC50 (NCI-H929 [4]): 1000 nM
IC50 (DHL10): 800 nM

AELPPEFAAQLRKIGDKVYC [NOXA BH3, BH3 domain peptide]
Mcl-1 Priming State (NOXA Signal) (DHL6 [5]): 18 (LOW) %
Mcl-1 Priming State (NOXA Signal) (LPN3 [6]): 58 (HIGH) %
Mcl-1 Priming State (NOXA Signal) (Mcl-1 1780 [7]): 75 (HIGH) % and 71 (HIGH) %
Mcl-1 Priming State (NOXA Signal) (NCI-H929 [8]): 74 (HIGH) %
